Consider eight compounds from ChEMBL document CHEMBL1157523, “Synthesis and in vivo evaluation of 11-substituted estradiol derivatives as anti-implantation agents” (2008).

The source made the active and inactive calls. The rule behind the calls is not given here.

Common to all, as to assay type: functional
Experiment [1] concerns Rattus norvegicus. Briefly: Antiimplantation activity against Sprague-Dawley albino rat at 10 mg/kg, po administered for 1-5 days measured on day 10 of pregnancy relative to control.
Experiment [2] concerns Rattus norvegicus. Briefly: Antiimplantation activity against Sprague-Dawley albino rat at 1 mg/kg, po administered for 1-5 days measured on day 10 of pregnancy relative to control.
The test system of experiment [3] is Rattus norvegicus. Briefly: Antiimplantation activity against Sprague-Dawley albino rat at 2 mg/kg, po administered for 1-5 days measured on day 10 of pregnancy relative to control.
Experiment [4] has as its system Rattus norvegicus. Nature of the experiment: Antiimplantation activity against Sprague-Dawley albino rat at 5 mg/kg, po administered for 1-5 days measured on day 10 of pregnancy relative to control.
Experiment [5] has as its system Rattus norvegicus. Nature of the experiment: Antiimplantation activity against Sprague-Dawley albino rat at 1.5 mg/kg, po administered for 1-5 days measured on day 10 of pregnancy relative to control.
In experiment [6] the test system is Rattus norvegicus. Nature of the experiment: Antiimplantation activity against Sprague-Dawley albino rat at 2.5 mg/kg, po administered for 1-5 days measured on day 10 of pregnancy relative to control.
Experiment [7] has as its system Rattus norvegicus. Nature of the experiment: Antiimplantation activity against Sprague-Dawley albino rat at 1.25 mg/kg, po administered for 1-5 days measured on day 10 of pregnancy relative to control.

For `COc1ccc2c(c1)OC(C)(C)C(c1ccccc1)C2c1ccc(OCCN2CCCC2)cc1` (stereo unspecified) [ORMELOXIFENE], the Activity in the experiment with Rattus norvegicus [1] and with Rattus norvegicus [2] was 100% in each case.

On to `COc1ccc2c(c1)CCC1=C2C(O)(Cc2ccccc2)C[C@]2(C)[C@@H](O)CC[C@@H]12` (stereo partly specified), for which, in the experiment on Rattus norvegicus [1], the Activity is given as 100%.

In the experiment on Rattus norvegicus [1], `C=CCC1=C[C@]2(C)[C@@H](O)CC[C@H]2C2=C1c1ccc(OC)cc1CC2` yielded an Activity of 100%.

On to `COc1ccc2c(c1)CCC1=C2C(=O)C[C@]2(C)[C@@H](O)CC[C@@H]12`, for which the Activity in the experiment with Rattus norvegicus [1] and with Rattus norvegicus [4] was 100% throughout. Besides, the result with Rattus norvegicus [3] was inactive.

Consider `C=CCC1(O)C[C@]2(C)[C@@H](O)CC[C@H]2C2=C1c1ccc(OC)cc1CC2` (stereo partly specified), for which the Activity in the experiment on Rattus norvegicus [1] is 100%; in the experiment with Rattus norvegicus [3], 100%; in the experiment with Rattus norvegicus [5] it was 60%; with Rattus norvegicus [4], 100%; with Rattus norvegicus [2], 60%.

As to `COc1ccc2c(c1)CCC1=C2C(C)(O)C[C@]2(C)[C@@H](O)CC[C@@H]12` (stereo partly specified), the Activity in the experiment with Rattus norvegicus [1], in the experiment on Rattus norvegicus [3] and in the experiment with Rattus norvegicus [4] was 100% throughout.

Compound `C=CCC1(O)C[C@]2(C)[C@@H](OC(C)=O)CC[C@H]2C2=C1c1ccc(OC)cc1CC2` (stereo partly specified) gave an Activity in the experiment with Rattus norvegicus [1] of 100%.

On to `CCC1(O)C[C@]2(C)[C@@H](O)CC[C@H]2C2=C1c1ccc(OC)cc1CC2` (stereo partly specified), for which the Activity amounted to 100% in the experiment with Rattus norvegicus [1]; 100% in the experiment on Rattus norvegicus [4]; 100% with Rattus norvegicus [6]; 50% in the experiment on Rattus norvegicus [2]; 100% in the experiment with Rattus norvegicus [7].
